Source: patent publication US20060020027A1, “Use of curcumanoids as histone acetyltransferases (HATs) inhibitors” (priority 2004, published 2006)

Assays:
[1] = system: HeLa cells; test: Apoptosis assay (Hoechst staining, nuclear fragmentation); format: cell-based; details: 24 hours exposure to 75-100 μM
Procedure: Apoptosis assay: Curcumin-induced apoptosis was monitored by the extent of nuclear fragmentation. Nuclear fragmentation was visualized by Hoechst staining of apoptotic nuclei. The apoptotic cells were collected by centrifugation, washed with PBS and fixed in 4% paraformaldehyde for 20 minutes at room tempertature. Subsequently the cells were washed and resuspended in 20 μl PBS before depositing it on poly lysine-coated coverslips and were left to adhere on cover slips for 30 min at room temperature after which the cover slips were washed twice with PBS. The adhered cells were then incubated with 0.1% Triton X-100 for 5 min at room temperature and rinsed with PBS for three times. The coverslips were treated with Hoechst 33258 for 30 minutes at 37° C., rinsed with PBS and mounted them on slides with glycerol-PBS and processed as described previously (29).
Arrows indicate apoptotic nuclear fragmentation

[2] = system: p300 HAT activity dependent chromatin transcription; test: In vitro transcription from chromatin template; format: biochemical
Procedure: In Vitro Chromatin Assembly: Chromatin template for in vitro transcription experiments was assembled and characterized as described earlier (9).
(§1) In vitro Transcription Assay: Transcription assays were carried out as described elsewhere (9) with the necessary modifications. The reconstituted chromatin template (containing 30 ng DNA) or an equimolar amount of histone—free DNA was incubated with 50 ng of activator (Gal4-VP16) in a buffer containing 4 mM HEPES (pH 7.8), 20 mM KCl, 2 mM DTT, 0.2 mM PMSF, 10 mM sodium butyrate, 0.1 mg/ml bovine serum albumin, 2% glycerol. […] HeLa nuclear extract (5 μl, which contains 8 mg/ml protein) was added then to initiate the preinitiation complex formation. Transcription reaction was started by the addition of NTP-mix and α-[^32P] UTP after the preinitiation complex formation and incubated further for 40 min at 30° C. […] Transcripts were analysed by 5% Urea-PAGE and quantification of transcription was done by phosphoimager (Fuji) analysis. […]
(§2) (A), Schematic representation of the in vitro transcription protocol. […] The in vitro transcription reaction mixtures were analyzed on 5% urea-acrylamide gel and further processed by autoradiography.

[3] = biological target: CBP (Homo sapiens, UniProt Q92793); test: Histone acetyltransferase (HAT) assay with CBP; format: biochemical; details: core histones
Procedure: (§3) Histone acetyltransferase Assay: HAT assays were performed as described previously (30). […] The reaction mixture was then blotted onto P-81 (Whatman) filter paper and radioactive counts were recorded on a Wallac 1409 liquid scintillation counter. The radiolabeled acetylated histones were visualized by resolving on 15% SDS-polyacrylamide gel and subjected to fluorography followed by autoradiography.

[4] = system: acetylation of p53 in 293 T cells; test: p53 acetylation in transfected cells (immunoprecipitation, western blotting); format: cell-based; details: 24 hours
Procedure: 293 T cells were transfected with CMV-p53 and CMV-p300 using Lipofectamine 2000 reagent (Invitrogen) according to the manufacturer's instructions. […] The cells were harvested using RIPA buffer (150 mM NaCl, 50 mM Tris pH 7.4, 1% NP40, 0.1% Sodium deoxycholate, 1 mM EDTA, 0.5 μg/ml leupeptin, 0.5 μg/ml aprotinin and 0.5 μg/ml pepstatin) and the p53 protein was immunoprecipitated from the lysates using mouse monoclonal anti-p53 antibody, DO1 (oncogene). The immunocomplexes were bound on protein G-sepharose beads (Amersham Pharmacia) for 12 hours at 4° C., washed 3 times with RIPA buffer and subjected to SDS-PAGE on a 10% gel followed by western blotting using mouse monoclonal anti-p53 antibody, pAb421 or mouse monoclonal anti-acetylated lysine antibody.
(B) HeLa cells were treated as indicated, for 24 hours, histones were extracted and separated on an 18% acid/urea/triton (AUT) PAGE. The protein bands were visualized by Coomassie brilliant blue staining. […] Asterisk (*) indicates hyperacetylation of histones in response to HDAC inhibition by TSA and sodium butyrate. […] (C). The acid-extracted histones were resolved over 12% SDS-PAGE and were analyzed by western blot using antibodies against acetylated histone H3 and H4. […] The p53 protein was immunoprecipitated from the cell lysates using p53 monoclonal antibody and acetylation status was analyzed by western blotting. […]

[5] = biological target: T1, lysine methyltransferase G9a (Homo sapiens, UniProt Q96KQ7); test: Histone methyltransferase assay with G9a; format: biochemical; details: 50 and 100 μM curcumin
T1 construct: bacterially expressed HMTase domain of G9a fused to GST (31); GST; made in house
T1 sequence (Q96KQ7 830-1209 limits assumed): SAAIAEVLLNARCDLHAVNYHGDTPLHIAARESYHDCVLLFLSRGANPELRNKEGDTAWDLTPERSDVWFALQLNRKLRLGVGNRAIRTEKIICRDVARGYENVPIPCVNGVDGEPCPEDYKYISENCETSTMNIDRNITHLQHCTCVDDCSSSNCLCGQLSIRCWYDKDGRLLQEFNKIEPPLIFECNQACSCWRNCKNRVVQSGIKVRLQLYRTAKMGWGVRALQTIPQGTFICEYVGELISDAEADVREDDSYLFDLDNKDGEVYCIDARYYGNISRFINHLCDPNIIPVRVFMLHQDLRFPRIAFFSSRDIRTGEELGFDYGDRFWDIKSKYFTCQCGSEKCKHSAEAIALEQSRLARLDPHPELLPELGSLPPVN
Procedure: (§4) Histone methyltransferase and deacetylase Assays: Histone methyltransferase assays were performed in a 30 μl reaction. […] After the initial incubation, 1 μl of 8.3 Ci/mmol ^3H—S— Adenosyl Methionine was added to the reaction mixtures and the incubation continued for 1 hour (in the case of nuclear extract) or for 15 minutes (in the case of G9a). The reaction products were TCA precipitated, resolved on 15% SDS-PAGE and subjected to fluorography followed by autoradiography.
(§5) The reaction products were TCA precipitated, resolved on 15% SDS-PAGE and subjected to fluorography followed by autoradiography.

[6] = system: acetylation of histones in HeLa cells; test: In vivo histone acetylation in cells (AUT gel and western blotting); format: cell-based
Procedure: Acid/Urea/Triton (A UT) polyacrylamide gel electrophoresis and Western Blotting for in vivo acetylated histones: HeLa cells (3×10^6 cells per 90 mm dish) were seeded overnight and histones were extracted from 24 hours of compound treated cells as reported earlier (29,32). Briefly, cells were harvested, washed in ice-cold buffer A (150 mM KCl, 20 mM HEPES, pH 7.9, 0.1 mM EDTA and 2.5 mM MgCl2) and lysed in buffer A containing 250 mM sucrose and 1% (v/v) Triton X 100. Nuclei were recovered by centrifugation, washed, and proteins were extracted for 1 h using 0.25 M HCl. The proteins were precipitated with 25% (w/v) trichloroacetic acid (TCA) and sequentially washed with ice-cold acidified acetone (20 μl of 12N HCl in 100 ml acetone), and acetone, air-dried and dissolved in the sample buffer (5.8 M urea, 0.9 M glacial acetic acid, 16% glycerol, and 4.8% 2-mercaptoethanol). The histones (equal amounts in all lanes) were resolved on AUT gel as described elsewhere (33,34).
For western blotting, the quantitated protein samples were run on a 12% SDS-polyacrylamide gel and following electrophoresis, proteins on the gel were electrotransferred onto an immobilon membrane (PVDF; Millipore Corp., Bedford, Mass.). The membranes were then blocked in 5% skim milk powder solution in 1×PBS containing 0.05% Tween 20 and then immunoblotted with anti-acetyl H3 (Calbiochem), anti-acetyl H4 (a kind gift from Dr. Alaine Verrault) and anti-H3 respectively. Detection was performed using goat anti-rabbit secondary antibody (Bangalore Genei) and bands were visualized by ECL detection system (Pierce).
(B) HeLa cells were treated as indicated, for 24 hours, histones were extracted and separated on an 18% acid/urea/triton (AUT) PAGE. The protein bands were visualized by Coomassie brilliant blue staining. […] Asterisk (*) indicates hyperacetylation of histones in response to HDAC inhibition by TSA and sodium butyrate. […] (C). The acid-extracted histones were resolved over 12% SDS-PAGE and were analyzed by western blot using antibodies against acetylated histone H3 and H4. Loading and transfer of equal amounts of protein were confirmed by immunodetection of histone H3. (D) 293 T cells were transiently transfected with CMV-p53 and CMV-p300 either alone or in combination as indicated. […] The p53 protein was immunoprecipitated from the cell lysates using p53 monoclonal antibody and acetylation status was analyzed by western blotting. Lanes 1 and 4, transfection with p53 alone; lanes 2 and 5, co-transfection with p53 and p300; lanes 3 and 6, transfection with p300 alone. (IP:Immunoprecipitation and IB: Immunoblotting).

[7] = system: transcription from DNA template; test: In vitro transcription from DNA template; format: biochemical; details: even at 300 μM
Procedure: as §1, with “C. For loading control separate reaction was setup with ˜25 ng of supercoiled ML200 DNA, and the transcription assay was carried out as described above, without the addition of the activator (Gal4-VP16) and 2 μl of this reaction was added to each of the transcription reactions.” for “C.”
as §2

[8] = biological target: p300 (Homo sapiens, UniProt Q09472); test: Histone acetyltransferase (HAT) assay, filter binding and gel, with p300; format: biochemical; details: varying acetyl CoA or histone concentration; 25 and 30 μM curcumin
From the text: The results were plotted using the Graph Pad Prism software.

[9] = biological target: PCAF (Homo sapiens, UniProt Q92831); test: Histone acetyltransferase (HAT) assay with PCAF; format: biochemical; details: 100 μM curcumin
Procedure: as §3

[10] = system: histone methyltransferase enzymes of HeLa nuclear extract; test: Histone methyltransferase assay with HeLa nuclear extract; format: biochemical; details: 50 and 100 μM curcumin
Procedure: as §4, §5

[11] = system: SupT1 cells; test: Trypan blue exclusion analysis of viable cells; format: cell-based; details: 100 μM curcumin, 48 hrs
From the text: Various experimental formats have been used to evaluate infection of target cells by HIV or inhibition of the viral infection in the presence of an anti-viral compound (44, 45). The standard format is to add titered viral stock to the target cells at a known multiplicity of infection (MOI) in the presence or absence of an anti-viral compound and monitor the synthesis of the viral structural protein p24 or the enzyme reverse transcriptase (46, 47). In the natural context, the viral transfer is more efficient through cell-to-cell contact rather than free virus infecting a target cell. Prevention of the viral transfer between cells is technically more difficult than neutralizing the free virus. SupT1 cells are highly […] for HIV-1 and these cells make numerous and large syncytia when infected with the virus. Taking advantage of this property, we co-cultured SupT1 cells in the presence of H9/HTLV-IIIb NIH 1983 cells that produce a T-cell tropic virus. […] To rule out the possibility of cytotoxicity and cell death, we determined the number of viable cells in all the wells using a trypan blue exclusion analysis.

[12] = biological target: T2, p300 (substrate HIV-Tat protein) (Homo sapiens, UniProt Q09472); test: Acetylation of Tat protein by p300 (HAT assay); format: biochemical; details: […] and 50 μM curcumin
T2 construct: made in house
Procedure: as §3
(B), the percentage of acetylation was calculated in each of the cases by accounting for the corrections of acetylation in the case of Tat alone.

[13] = system: HIV-1 (H9/HTLV-IIIb NIH 1983 cells cocultured with SupT1 cells); test: Syncytium inhibition assay; format: cell-based; details: 12 h
Procedure: Syncytium inhibition assay: The cell lines SupT1 and H9/HTLV-IIIb NIH 1983 were obtained from The AIDS Research and Reference Reagent Program. H9/HTLV-IIIb NIH 1983 cells carrying a stably integrated provirus were cocultured with excess numbers of SupT1 cells at a ration of 1:200 or 1:400. A total of […] were seeded per well in a 24-well plate and cultured in RPMI medium supplemented with 10% fetal calf serum and antibiotics. […] All the wells received the same amount of DMSO including the control wells. Formation of syncytia was visible under light microscope within 12 hrs. The total number of syncytia in 10 representative wells was counted at different time points (12, 24 and 48 h) and data for 12 h time point are presented. Identical results were obtained at other time points. All the assays were performed in triplicate wells and the experiment was performed two times.
(A), H9/HTLV-IIIb NIH 1983 carrying stable integrated virus were cocultured with excess numbers of SupT1 cells at 1:200 or 1:400 ratio. A total of 0.1×10^6 cells were seeded per well. […] Formation of syncytia is visible under light microscope within 12 hrs. The total number of syncytia in 10 representative wells was counted and presented. The data are representative of 2 independent experiments.

[14] = HeLa cells, TSA and sodium butyrate, with versus without curcumin (lane 5 versus 6)

Sequence of p300 (Q09472 whole entry, species assumed): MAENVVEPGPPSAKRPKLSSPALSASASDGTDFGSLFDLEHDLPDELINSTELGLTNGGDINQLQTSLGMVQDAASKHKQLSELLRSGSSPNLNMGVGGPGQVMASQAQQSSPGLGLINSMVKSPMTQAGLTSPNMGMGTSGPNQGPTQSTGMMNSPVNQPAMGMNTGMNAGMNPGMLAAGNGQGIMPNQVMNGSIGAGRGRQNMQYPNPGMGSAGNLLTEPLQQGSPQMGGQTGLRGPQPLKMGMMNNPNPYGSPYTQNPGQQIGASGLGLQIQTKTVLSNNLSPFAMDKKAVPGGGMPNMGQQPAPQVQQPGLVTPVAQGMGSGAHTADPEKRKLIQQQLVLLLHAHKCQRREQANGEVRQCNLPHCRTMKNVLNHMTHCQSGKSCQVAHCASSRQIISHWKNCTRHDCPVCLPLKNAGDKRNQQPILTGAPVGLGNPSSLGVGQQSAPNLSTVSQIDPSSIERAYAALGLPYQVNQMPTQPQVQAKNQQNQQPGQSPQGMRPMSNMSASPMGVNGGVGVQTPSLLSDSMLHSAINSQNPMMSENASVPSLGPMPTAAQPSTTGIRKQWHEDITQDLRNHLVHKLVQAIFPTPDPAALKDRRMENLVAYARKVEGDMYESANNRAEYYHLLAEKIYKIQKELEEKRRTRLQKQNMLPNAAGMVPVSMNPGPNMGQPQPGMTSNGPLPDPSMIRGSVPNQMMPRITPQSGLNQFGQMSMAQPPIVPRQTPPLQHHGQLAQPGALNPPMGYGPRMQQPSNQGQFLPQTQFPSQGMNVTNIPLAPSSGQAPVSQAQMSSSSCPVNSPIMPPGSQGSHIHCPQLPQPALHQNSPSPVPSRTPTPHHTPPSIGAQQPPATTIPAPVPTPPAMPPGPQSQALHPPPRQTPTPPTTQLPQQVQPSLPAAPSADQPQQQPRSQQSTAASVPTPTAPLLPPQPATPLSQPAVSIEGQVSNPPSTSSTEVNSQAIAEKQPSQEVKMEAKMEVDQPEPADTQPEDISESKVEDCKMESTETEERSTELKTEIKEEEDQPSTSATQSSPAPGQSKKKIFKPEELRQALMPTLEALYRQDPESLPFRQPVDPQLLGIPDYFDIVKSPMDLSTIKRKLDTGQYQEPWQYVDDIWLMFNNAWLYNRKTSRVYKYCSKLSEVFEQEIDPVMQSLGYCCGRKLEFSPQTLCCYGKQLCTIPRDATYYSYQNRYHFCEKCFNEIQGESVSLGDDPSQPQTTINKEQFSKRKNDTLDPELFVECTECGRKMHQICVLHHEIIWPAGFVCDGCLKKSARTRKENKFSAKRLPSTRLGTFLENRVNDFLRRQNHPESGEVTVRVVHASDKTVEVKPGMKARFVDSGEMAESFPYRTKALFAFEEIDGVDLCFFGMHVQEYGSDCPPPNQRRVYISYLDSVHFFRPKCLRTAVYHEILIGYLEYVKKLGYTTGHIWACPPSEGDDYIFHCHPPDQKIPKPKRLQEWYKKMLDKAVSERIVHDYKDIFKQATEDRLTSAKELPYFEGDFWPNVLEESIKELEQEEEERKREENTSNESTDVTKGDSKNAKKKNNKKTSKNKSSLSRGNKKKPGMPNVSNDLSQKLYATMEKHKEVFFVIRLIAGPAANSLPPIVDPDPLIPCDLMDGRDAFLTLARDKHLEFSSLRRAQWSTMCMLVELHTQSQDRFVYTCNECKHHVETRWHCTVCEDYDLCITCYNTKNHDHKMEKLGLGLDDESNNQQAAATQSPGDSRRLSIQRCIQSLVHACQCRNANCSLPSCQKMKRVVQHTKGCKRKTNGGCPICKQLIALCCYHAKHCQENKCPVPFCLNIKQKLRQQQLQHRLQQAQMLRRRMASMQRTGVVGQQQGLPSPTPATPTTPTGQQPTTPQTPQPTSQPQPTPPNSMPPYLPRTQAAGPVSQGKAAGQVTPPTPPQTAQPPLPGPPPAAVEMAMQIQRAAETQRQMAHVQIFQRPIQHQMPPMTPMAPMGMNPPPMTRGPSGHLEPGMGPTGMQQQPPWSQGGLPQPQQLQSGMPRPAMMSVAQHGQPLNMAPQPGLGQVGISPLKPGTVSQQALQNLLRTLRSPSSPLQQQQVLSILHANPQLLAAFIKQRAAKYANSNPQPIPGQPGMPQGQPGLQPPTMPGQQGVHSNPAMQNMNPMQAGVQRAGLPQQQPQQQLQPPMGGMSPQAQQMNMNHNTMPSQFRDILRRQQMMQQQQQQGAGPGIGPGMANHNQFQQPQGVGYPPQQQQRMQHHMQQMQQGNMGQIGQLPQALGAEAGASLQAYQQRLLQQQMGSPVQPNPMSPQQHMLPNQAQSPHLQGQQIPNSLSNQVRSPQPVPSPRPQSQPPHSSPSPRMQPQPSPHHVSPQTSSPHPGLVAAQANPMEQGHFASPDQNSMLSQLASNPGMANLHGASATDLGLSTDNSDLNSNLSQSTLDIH
Sequence of PCAF (Q92831 whole entry, species assumed): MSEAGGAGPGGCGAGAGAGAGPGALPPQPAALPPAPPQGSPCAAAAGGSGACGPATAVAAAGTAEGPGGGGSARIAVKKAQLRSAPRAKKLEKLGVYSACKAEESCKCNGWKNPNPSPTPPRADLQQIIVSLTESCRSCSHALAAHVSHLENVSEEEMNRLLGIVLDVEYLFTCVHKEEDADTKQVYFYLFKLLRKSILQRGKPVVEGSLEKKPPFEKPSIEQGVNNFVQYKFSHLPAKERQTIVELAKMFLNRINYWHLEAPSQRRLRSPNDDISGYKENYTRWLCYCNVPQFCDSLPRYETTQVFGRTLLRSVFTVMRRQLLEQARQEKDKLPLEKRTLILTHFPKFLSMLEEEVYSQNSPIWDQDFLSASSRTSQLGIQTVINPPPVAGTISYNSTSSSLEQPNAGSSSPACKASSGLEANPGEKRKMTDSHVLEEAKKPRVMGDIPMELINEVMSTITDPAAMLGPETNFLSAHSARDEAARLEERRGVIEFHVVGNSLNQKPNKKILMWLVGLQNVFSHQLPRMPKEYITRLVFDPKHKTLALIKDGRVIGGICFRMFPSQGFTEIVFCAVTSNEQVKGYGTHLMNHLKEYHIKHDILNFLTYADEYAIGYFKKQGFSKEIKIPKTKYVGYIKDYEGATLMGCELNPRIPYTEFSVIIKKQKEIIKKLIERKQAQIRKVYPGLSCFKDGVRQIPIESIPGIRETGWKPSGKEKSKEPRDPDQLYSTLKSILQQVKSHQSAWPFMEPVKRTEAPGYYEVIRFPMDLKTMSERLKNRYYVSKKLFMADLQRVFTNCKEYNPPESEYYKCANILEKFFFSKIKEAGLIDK
T2 sequence (Q09472 whole entry, species assumed): as the sequence (Q09472 whole entry, species assumed) above

In the case of `COc1cc(/C=C/C(=O)CC(=O)/C=C/c2ccc(O)c(OC)c2)ccc1O` [curcumin], the “apoptosis (nuclear fragmentation)” value [1] is reported as “induces the apoptosis”, the “repression of p300 HAT activity dependent chromatin transcription” value ([2]; 100 μM) is reported as at most 3 fold and the “repression of p300 HAT activity dependent chromatin transcription” value ([2]; 300 μM) is reported as at most 8 fold. The “inhibition of CBP HAT activity” value [3] was “potent and specific inhibitor”, the “p300-mediated acetylation of p53” value ([4]; 293 T cells transfected with p53 and p300, 100 μM curcumin) was “completely inhibits” and the “acetylation status of the endogenous p53” value ([4]; 293 T cells transfected with p300 alone, 100 μM curcumin) was “not altered”. The “histone methylation by G9a” value [5] was “remains same”, the “acetylation of histones (AUT gel)” value ([6]; HeLa cells hyperacetylated with TSA and sodium butyrate, 100 μM curcumin) was “inhibited” and the “unacetylated form of histone H4 and H2B (AUT gel)” value ([6]; HeLa cells, 75 and 100 μM curcumin, 24 hours) was “modestly increased”. For the same compound, the “inhibition of H3 acetylation (western blotting)” value [6, 14] was 6 fold, the “inhibition of H4 acetylation (western blotting)” value [6, 14] was 10 fold and the “transcription from the DNA template” value [7] was “not affected”. The “Kcat of p300 HAT activity” value [8] was “decreased”, the “Km of p300 HAT activity” value [8] was “decreased” and the “Vmax of p300 HAT activity” value [8] was “decreased”. For the same compound, the “PCAF HAT activity” value [9] was “no change”, the “methylation of core histones by HeLa nuclear extract (NE)” value [10] was “no difference” and the “cytotoxicity (viable cells, trypan blue exclusion)” value [11] was “not cytotoxic”. The “acetylation of Tat by p300 in vitro” value [12] was “strongly inhibits”, the number of syncytia ([13]; highest concentration of curcumin) was “no syncytia were seen” and the number of syncytia ([13]; increasing concentration of curcumin) was “dose-dependent reduction”.
